How the values were obtained:
Candida albicans [1] = assay: Antimicrobial activity against Candida albicans ATCC 90028 biofilm after 1 hr by MTT assay; type: functional, organism-based
Streptococcus mutans [2] = assay: Antimicrobial activity against Streptococcus mutans ATCC 35668 biofilm at 0.008 % after 1 hr by MTT assay relative to control; type: functional
Streptococcus mutans [3] = assay: Antimicrobial activity against Streptococcus mutans ATCC 35668 biofilm at 0.04 % after 1 hr by MTT assay relative to control; type: functional
Streptococcus mutans [4] = assay: Antimicrobial activity against Streptococcus mutans ATCC 35668 biofilm at 0.2 % after 1 hr by MTT assay relative to control; type: functional
Streptococcus mutans [5] = assay: Antimicrobial activity against Streptococcus mutans ATCC 35668 biofilm at 1 % after 1 hr by MTT assay relative to control; type: functional
Candida albicans [6] = assay: Antimicrobial activity against Candida albicans ATCC 90028 biofilm at 0.008 % after 1 hr by MTT assay relative to control; type: functional
Candida albicans [7] = assay: Antimicrobial activity against Candida albicans ATCC 90028 biofilm at 0.004 % after 1 hr by MTT assay relative to control; type: functional
Candida albicans [8] = assay: Antimicrobial activity against Candida albicans ATCC 90028 biofilm at 0.2 % after 1 hr by MTT assay relative to control; type: functional
Candida albicans [9] = assay: Antimicrobial activity against Candida albicans ATCC 90028 biofilm at 1 % after 1 hr by MTT assay relative to control; type: functional

SMILES | inhibition (Candida albicans [1]) | inhibition (INH) (Streptococcus mutans [2]) [%] | inhibition (INH) (Streptococcus mutans [3]) [%] | inhibition (INH) (Streptococcus mutans [4]) [%] | inhibition (INH) (Streptococcus mutans [5]) [%] | inhibition (INH) (Candida albicans [6]) [%] | inhibition (INH) (Candida albicans [7]) [%] | inhibition (INH) (Candida albicans [8]) [%] | inhibition (INH) (Candida albicans [9]) [%]
CCOC(=O)C1=C(OC)C(=O)N(C(=O)C(NC(=O)OC(C)(C)C)C(C)C)C1 (stereo unspecified) | Dose-dependent effect | 5 | 9.4 | 16.1 | 32.6 | 0 | 7.8 | 15.7 | 30.7
CCCCCCCC/C=C/C1=C(OCc2ccccc2)C(=O)N(Cc2ccc(OC)cc2)C1 | Dose-dependent effect | 2.4 | 14.1 | 92.7 | 93.2 | 0.2 | 24.5 | 34 | 60.8
COc1ccc(CN2CC(CO)=C(OCc3ccccc3)C2=O)cc1 | Dose-dependent effect | 0 | 4.5 | 2.8 | 5 | 7.5 | 6.3 | 20.9 | 36.1
COc1ccc(CN2CC(CO)=C(O[Si](C)(C)C(C)(C)C)C2=O)cc1 | – | 11.4 | 15.4 | 13.3 | 19.1 | 4.5 | 19.4 | 21.3 | 1
CCOC(=O)C1=C(O)C(=O)N(Cc2ccc(OC)cc2)C1 | – | 0 | 3.4 | 51.3 | 25.6 | 19.8 | 17.2 | 10.7 | 45.5
CCOC(=O)C1=C(OCc2ccccc2)C(=O)N(Cc2ccc(OC)cc2)C1 | Dose-dependent effect | 1 | 5 | 2.7 | 0 | 6 | 14.7 | 23.1 | 32.3
N=C(NCCCCCCNC(=N)NC(=N)Nc1ccc(Cl)cc1)NC(=N)Nc1ccc(Cl)cc1 [CHLORHEXIDINE] | – | – | – | 93.6 | – | – | – | 49.9 | –
CCCCCCCCCCC1=C(O[Si](C)(C)C(C)(C)C)C(=O)N(Cc2ccc(OC)cc2)C1 | – | 10.7 | 4.3 | 3.4 | 0 | 12.1 | 9 | 1.9 | 31.6
CCOC(=O)C1=C(OCc2ccccc2)C(=O)N(C(=O)C(NC(=O)OC(C)(C)C)C(C)C)C1 (stereo unspecified) | Dose-dependent effect | 23.1 | 28 | 48.6 | 89.5 | 10.1 | 7.3 | 16.7 | 50.7
CCOC(=O)C1=C(OCc2ccccc2)C(=O)N(C(=O)[C@@H](N)C(C)C)C1.O=C(O)C(F)(F)F | – | 0.7 | 1.2 | 3.1 | 47.3 | 18.5 | 12.3 | 11.9 | 36.7
CCOC(=O)C1=C(O[Si](C)(C)C(C)(C)C)C(=O)N(Cc2ccc(OC)cc2)C1 | – | 1.4 | 0.1 | 1.8 | 50.6 | 23.5 | 11.8 | 12.2 | 17
CCOC(=O)C1=C(OCc2ccccc2)C(=O)NC1 | Dose-dependent effect | 1.3 | 3 | 4.8 | 3.4 | 9.2 | 23.2 | 27.9 | 43.2
